# Activity calls are given as the source filed them. No cut-off for these calls is given here.
# Assays:
# [1] = target: T1, Sodium- and chloride-dependent glycine transporter 1 (Homo sapiens, UniProt P48067); experiment: Inhibition of GlyT1 (unknown origin) assessed as inhibition of [14C]glycine uptake
# T1 sequence (P48067 whole entry): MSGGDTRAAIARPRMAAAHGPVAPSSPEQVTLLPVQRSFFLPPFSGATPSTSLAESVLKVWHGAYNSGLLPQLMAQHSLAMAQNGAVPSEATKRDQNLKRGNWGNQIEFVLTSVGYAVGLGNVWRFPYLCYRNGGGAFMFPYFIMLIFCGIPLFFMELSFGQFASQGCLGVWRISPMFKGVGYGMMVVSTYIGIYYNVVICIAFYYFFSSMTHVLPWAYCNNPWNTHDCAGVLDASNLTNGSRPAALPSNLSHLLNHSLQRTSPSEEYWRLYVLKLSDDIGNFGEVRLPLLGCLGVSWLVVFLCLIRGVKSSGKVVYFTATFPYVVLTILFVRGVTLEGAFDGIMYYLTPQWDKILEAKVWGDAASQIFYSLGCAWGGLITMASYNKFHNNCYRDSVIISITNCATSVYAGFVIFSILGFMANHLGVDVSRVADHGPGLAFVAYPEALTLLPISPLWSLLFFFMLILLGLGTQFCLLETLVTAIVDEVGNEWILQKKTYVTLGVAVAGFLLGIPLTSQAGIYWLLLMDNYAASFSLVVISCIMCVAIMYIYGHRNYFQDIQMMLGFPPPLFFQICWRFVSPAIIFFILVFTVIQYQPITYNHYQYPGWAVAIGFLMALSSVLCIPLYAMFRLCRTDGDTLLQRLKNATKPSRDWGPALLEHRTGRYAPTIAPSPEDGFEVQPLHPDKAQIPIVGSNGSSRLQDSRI
# [2] = target: T2, Sodium- and chloride-dependent glycine transporter 2 (Homo sapiens, UniProt Q9Y345); experiment: Inhibition of GlyT2 (unknown origin)
# T2 sequence (Q9Y345 whole entry): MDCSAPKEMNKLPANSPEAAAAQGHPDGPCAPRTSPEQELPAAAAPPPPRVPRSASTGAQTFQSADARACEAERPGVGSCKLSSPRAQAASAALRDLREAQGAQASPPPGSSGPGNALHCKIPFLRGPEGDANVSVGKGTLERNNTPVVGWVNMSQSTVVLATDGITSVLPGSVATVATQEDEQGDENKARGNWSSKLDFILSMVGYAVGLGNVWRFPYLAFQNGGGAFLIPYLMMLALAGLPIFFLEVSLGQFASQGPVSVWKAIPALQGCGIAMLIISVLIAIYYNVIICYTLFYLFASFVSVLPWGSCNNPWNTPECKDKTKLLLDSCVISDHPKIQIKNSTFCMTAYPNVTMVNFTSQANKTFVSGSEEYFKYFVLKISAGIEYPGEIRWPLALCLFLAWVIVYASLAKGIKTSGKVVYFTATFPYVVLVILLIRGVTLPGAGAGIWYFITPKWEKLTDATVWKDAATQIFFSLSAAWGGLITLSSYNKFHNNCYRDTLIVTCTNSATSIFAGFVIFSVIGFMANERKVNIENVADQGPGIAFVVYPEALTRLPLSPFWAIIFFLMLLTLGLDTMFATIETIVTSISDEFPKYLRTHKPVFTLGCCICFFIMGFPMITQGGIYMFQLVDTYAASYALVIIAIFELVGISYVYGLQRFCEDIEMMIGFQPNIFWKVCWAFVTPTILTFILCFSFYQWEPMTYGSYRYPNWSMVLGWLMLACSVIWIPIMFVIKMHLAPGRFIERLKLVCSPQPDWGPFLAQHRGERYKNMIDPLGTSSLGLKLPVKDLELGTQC
# [3] = Partitioning coefficient, ratio of drug uptake from rat brain to plasma at 10 mg/kg, po; format: ADME, organism-based; parameters: dose 10 mg/kg, route oral
# Cytochrome P450 2D6 = Cytochrome P450 2D6 (Homo sapiens, UniProt P10635); experiment: Inhibition of CYP2D6 (unknown origin); format: ADME
# Cytochrome P450 2D6, sequence (P10635 whole entry): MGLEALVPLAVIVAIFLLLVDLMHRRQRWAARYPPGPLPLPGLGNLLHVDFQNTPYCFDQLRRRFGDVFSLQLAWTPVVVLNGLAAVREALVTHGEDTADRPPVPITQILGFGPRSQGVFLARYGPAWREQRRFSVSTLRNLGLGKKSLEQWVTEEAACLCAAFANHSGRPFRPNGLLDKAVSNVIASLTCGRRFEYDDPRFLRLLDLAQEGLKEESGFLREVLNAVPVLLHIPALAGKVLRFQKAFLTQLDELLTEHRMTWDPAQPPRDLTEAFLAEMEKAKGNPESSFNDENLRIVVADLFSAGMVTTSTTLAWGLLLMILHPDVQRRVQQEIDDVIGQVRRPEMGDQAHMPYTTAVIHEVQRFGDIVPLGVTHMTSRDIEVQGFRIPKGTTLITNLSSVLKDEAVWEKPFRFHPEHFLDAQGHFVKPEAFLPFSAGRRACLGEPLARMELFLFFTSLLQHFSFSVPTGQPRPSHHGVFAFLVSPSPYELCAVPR
# Cytochrome P450 3A4 = Cytochrome P450 3A4 (Homo sapiens, UniProt P08684); experiment: Inhibition of CYP3A4 (unknown origin); format: ADME
# Cytochrome P450 3A4, sequence (P08684 whole entry): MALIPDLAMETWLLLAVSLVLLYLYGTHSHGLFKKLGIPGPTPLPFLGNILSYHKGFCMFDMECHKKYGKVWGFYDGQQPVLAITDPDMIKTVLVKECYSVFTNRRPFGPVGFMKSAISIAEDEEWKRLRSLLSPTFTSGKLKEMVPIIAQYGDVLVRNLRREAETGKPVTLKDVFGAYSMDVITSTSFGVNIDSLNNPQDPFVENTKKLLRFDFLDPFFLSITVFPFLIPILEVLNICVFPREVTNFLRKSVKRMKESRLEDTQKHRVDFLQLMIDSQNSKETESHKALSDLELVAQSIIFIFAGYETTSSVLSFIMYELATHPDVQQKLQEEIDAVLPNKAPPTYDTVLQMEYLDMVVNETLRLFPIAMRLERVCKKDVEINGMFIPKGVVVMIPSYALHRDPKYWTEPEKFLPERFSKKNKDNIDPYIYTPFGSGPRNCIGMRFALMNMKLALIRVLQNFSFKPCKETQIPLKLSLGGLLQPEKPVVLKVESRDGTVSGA
# Cytochrome P450 1A2 = target: T3, Cytochrome P450 1A2 (Homo sapiens, UniProt P05177); experiment: Inhibition of CYP1A2 (unknown origin); format: ADME
# T3 sequence (P05177 whole entry): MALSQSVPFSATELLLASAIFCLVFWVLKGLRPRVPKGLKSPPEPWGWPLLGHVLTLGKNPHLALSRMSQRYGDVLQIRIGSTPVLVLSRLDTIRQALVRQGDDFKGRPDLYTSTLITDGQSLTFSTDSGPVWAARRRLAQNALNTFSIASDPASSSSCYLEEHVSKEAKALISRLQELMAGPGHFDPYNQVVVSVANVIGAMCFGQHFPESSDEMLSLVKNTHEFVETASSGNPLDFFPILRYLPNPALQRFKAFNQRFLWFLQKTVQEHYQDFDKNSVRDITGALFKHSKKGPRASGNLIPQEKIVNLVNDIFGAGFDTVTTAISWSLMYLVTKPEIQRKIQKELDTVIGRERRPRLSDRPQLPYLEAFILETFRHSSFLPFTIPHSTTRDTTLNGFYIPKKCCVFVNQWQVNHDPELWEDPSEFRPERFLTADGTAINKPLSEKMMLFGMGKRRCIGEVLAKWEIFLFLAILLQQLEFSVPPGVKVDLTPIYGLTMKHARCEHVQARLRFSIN
# Cytochrome P450 2C9 = Cytochrome P450 2C9 (Homo sapiens, UniProt P11712); experiment: Inhibition of CYP2C9 (unknown origin); format: ADME
# Cytochrome P450 2C9, sequence (P11712 whole entry): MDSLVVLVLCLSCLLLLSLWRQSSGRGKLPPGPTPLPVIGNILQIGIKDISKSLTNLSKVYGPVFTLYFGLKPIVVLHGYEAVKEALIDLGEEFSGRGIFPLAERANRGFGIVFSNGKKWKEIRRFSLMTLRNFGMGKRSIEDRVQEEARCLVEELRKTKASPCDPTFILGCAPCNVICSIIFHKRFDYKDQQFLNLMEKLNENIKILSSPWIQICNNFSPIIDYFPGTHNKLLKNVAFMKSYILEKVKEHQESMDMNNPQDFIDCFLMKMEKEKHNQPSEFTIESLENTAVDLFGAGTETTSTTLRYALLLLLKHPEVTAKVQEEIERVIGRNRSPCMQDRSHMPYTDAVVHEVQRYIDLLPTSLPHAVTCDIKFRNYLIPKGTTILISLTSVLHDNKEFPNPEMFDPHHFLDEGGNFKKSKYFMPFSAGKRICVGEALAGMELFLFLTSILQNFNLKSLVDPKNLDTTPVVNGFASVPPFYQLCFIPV
# [4] = (§1) Fraction unbound in human plasma; format: ADME, cell-free
# [5] = target: T4, Sodium- and chloride-dependent glycine transporter 1 (Homo sapiens) (UniProt P48067); experiment: Competitive inhibition of GlyT1 (unknown origin) at 40 nM by Eadie-Hofstee plot analysis in presence of [14C]-glycine
# T4 sequence (whole entry): T1 sequence (P48067 whole entry)
# Plasma [6] = experiment: as §1; format: ADME, cell-free
# Rattus norvegicus [7] = experiment: Toxicity in rat schizophrenia model assessed as effect on basal startle amplitude at 30 mg/kg, po; format: organism-based; parameters: dose 30 mg/kg, route oral; conditions: in vivo
# Rattus norvegicus [8] = experiment: Antischizophrenic activity in rat schizophrenia model assessed as inhibition of […] to […] dB intensity-induced prepulse at 30 mg/kg, po; format: functional, organism-based; parameters: dose 30 mg/kg
# Plasma [9] = experiment: AUC (0 to 6 hrs) in rat plasma at 10 mg/kg, po; format: ADME, organism-based; parameters: time < 6 hr, dose 10 mg/kg, route oral; conditions: in vivo
# [10] = AUC (0 to 6 hrs) in rat brain at 10 mg/kg, po; format: ADME, organism-based; parameters: time < 6 hr, dose 10 mg/kg, route oral
# [11] = Partitioning coefficient, ratio of drug uptake from rat brain to plasma at 10 mg/kg, sc; format: ADME, organism-based; parameters: dose 10 mg/kg, route subcutaneous
# [12] = AUC (0 to 6 hrs) in rat brain at 10 mg/kg, sc; format: ADME, organism-based; parameters: time < 6 hr, dose 10 mg/kg, route subcutaneous
# Plasma [13] = experiment: AUC (0 to 6 hrs) in rat plasma at 10 mg/kg, sc; format: ADME, organism-based; parameters: time < 6 hr, dose 10 mg/kg, route subcutaneous; conditions: in vivo
# [14] = Clearance in rat at 0.5 mg/kg, iv; format: ADME, organism-based; parameters: dose 0.5 mg/kg, route intravenous; conditions: in vivo
# [15] = Half life in rat at 0.5 mg/kg, iv; format: ADME, organism-based; parameters: dose 0.5 mg/kg, route intravenous; conditions: in vivo
# Plasma [16] = experiment: Fraction unbound in rat plasma; format: ADME, cell-free
# Plasma [17] = experiment: Metabolic stability in rat plasma after 4 hrs; format: ADME, cell-free
smiles,measurement,setting,value
CC(C)S(=O)(=O)N1C[C@@H]2[C@H](C1)[C@@]2(CNC(=O)c1ccc(Cl)cc1Cl)CC1CC1,IC50,[1],3.4 µM
same,IC50,[2],> 30 µM
Cn1cnc(S(=O)(=O)N2C[C@@H]3[C@H](C2)[C@@]3(CNC(=O)c2ccc(Cl)cc2Cl)c2ccccn2)c1,Kp,[3]; brain,1.1
same,IC50,Cytochrome P450 2D6,> 30 µM
same,IC50,Cytochrome P450 3A4,> 30 µM
same,IC50,Cytochrome P450 1A2,> 30 µM
same,IC50,Cytochrome P450 2C9,> 30 µM
same,IC50,[1],0.247 µM
same,fraction unbound,[4],0.14
O=C(NC[C@]1(CC2CC2)[C@@H]2CN(S(=O)(=O)CC3CC3)C[C@@H]21)c1ccc(Cl)cc1Cl,IC50,[1],0.23 µM
same,IC50,[2],> 30 µM
CC(C)CS(=O)(=O)N1C[C@@H]2[C@H](C1)[C@@]2(CNC(=O)c1ccc(Cl)cc1Cl)CC1CC1,IC50,[1],2.9 µM
same,IC50,[2],> 30 µM
Cn1cnc(S(=O)(=O)N2C[C@@H]3[C@H](C2)[C@@]3(CNC(=O)c2c(Cl)cccc2Cl)CC2CC2)c1,inhibition,[5],Active
same,Kp,[3]; brain,0.5
same,IC50,[1],0.028 µM
same,Fu,Plasma [6],8%
O=C(NC[C@]1(CC2CC2)[C@@H]2CN(S(=O)(=O)c3ccccc3)C[C@@H]21)c1ccc(Cl)cc1Cl,IC50,[1],> 10 µM
same,IC50,[2],> 30 µM
CCS(=O)(=O)N1CCC(CNC(=O)c2ccc(Cl)cc2Cl)(CC2CC2)CC1,Activity,Rattus norvegicus [7],Non-toxic
same,inhibition,Rattus norvegicus [8],Active
same,IC50,Cytochrome P450 3A4,> 10 µM
same,IC50,Cytochrome P450 2C9,> 10 µM
O=C(NC[C@]1(CC2CC2)[C@@H]2CN(S(=O)(=O)c3ccccn3)C[C@@H]21)c1ccc(Cl)cc1Cl,IC50,[1],1 µM
same,IC50,[2],> 30 µM
CN1C[C@@H]2[C@H](C1)[C@H]2CN(Cc1ccc(Cl)c(F)c1)C(=O)c1cn(C)cn1,IC50,Cytochrome P450 3A4,> 10 µM
same,IC50,Cytochrome P450 2C9,> 10 µM
Cn1cnc(S(=O)(=O)N2C[C@@H]3[C@H](C2)[C@@]3(CNC(=O)c2ccc(Cl)cc2Cl)CC2CC2)c1,Kp,"[3]; brain and plasma, read-out: Kp",0.3
same,fraction unbound,[4],0.05
CCCS(=O)(=O)N1C[C@@H]2[C@H](C1)[C@@]2(CNC(=O)c1ccc(Cl)cc1Cl)CC1CC1,IC50,[1],0.36 µM
same,IC50,[2],> 30 µM
Cn1cnc(S(=O)(=O)N2C[C@@H]3[C@H](C2)[C@@]3(CNC(=O)c2ccccc2C(F)(F)F)CC2CC2)c1,Activity,Rattus norvegicus [7],Non-toxic
same,inhibition,Rattus norvegicus [8],Active
same,Kp,[3]; brain,0.83
same,AUC,Plasma [9],1.156 µM·h
same,AUC(0-t) at 6 h,[10],0.956 µM·h
same,Kp,[11],0.44
same,AUC(0-t) at 6 h,[12],0.431 µM·h
same,AUC,Plasma [13],0.976 µM·h
same,clearance,[14],31 mL/min/kg
same,half-life,[15],14.5 min
same,Fu,Plasma [16],44.8%
same,Stability,Plasma [17],Stable
same,IC50,Cytochrome P450 2D6,> 30 µM
same,IC50,Cytochrome P450 1A2,> 30 µM
same,IC50,Cytochrome P450 2C9,> 30 µM
same,IC50,[1],0.005 µM
same,Fu,Plasma [6],7%
O=C(NC[C@]1(CC2CC2)[C@@H]2CN(S(=O)(=O)c3ccccc3F)C[C@@H]21)c1ccc(Cl)cc1Cl,IC50,[1],> 10 µM
same,IC50,[2],> 30 µM
NCC(=O)O [GLYCINE],IC50,[1],31.6 µM
Cn1cnc(S(=O)(=O)N2C[C@@H]3[C@H](C2)[C@@]3(CNC(=O)c2ccc(Cl)cc2)CC2CC2)c1,Kp,[3]; brain,0.3
same,IC50,[1],0.032 µM
same,Fu,Plasma [6],3%
Cn1cnc(S(=O)(=O)N2C[C@@H]3[C@H](C2)[C@@]3(CNC(=O)c2cccc(C(F)(F)F)c2)CC2CC2)c1,Kp,"[3]; brain and plasma, read-out: Kp",0.7
same,IC50,[1],0.064 µM
same,Fu,Plasma [6],4%
Cn1cnc(S(=O)(=O)N2C[C@@H]3[C@H](C2)[C@@]3(CNC(=O)c2ccccc2Cl)CC2CC2)c1,Kp,"[3]; brain and plasma, read-out: Kp",0.4
same,fraction unbound,[4],0.03
CCS(=O)(=O)N1C[C@@H]2[C@H](C1)[C@@]2(CNC(=O)c1ccc(Cl)cc1Cl)CC1CC1,IC50,[1],1.3 µM
same,IC50,[2],> 30 µM
Cn1cnc(S(=O)(=O)N2C[C@@H]3[C@H](C2)[C@@]3(CNC(=O)c2ccccc2C(F)(F)F)c2ccccn2)c1,IC50,Cytochrome P450 2D6,> 30 µM
same,IC50,Cytochrome P450 3A4,> 30 µM
same,IC50,Cytochrome P450 1A2,> 30 µM
same,IC50,Cytochrome P450 2C9,> 30 µM
same,IC50,[1],0.185 µM
same,fraction unbound,[4],0.076
CCCCS(=O)(=O)N1C[C@@H]2[C@H](C1)[C@@]2(CNC(=O)c1ccc(Cl)cc1Cl)CC1CC1,IC50,[1],5.5 µM
same,IC50,[2],> 30 µM
CCCS(=O)(=O)N1CCC(c2ccccc2)([C@H](C)NC(=O)c2ccc(Cl)cc2Cl)CC1,IC50,Cytochrome P450 3A4,> 10 µM
same,IC50,Cytochrome P450 2C9,> 10 µM
same,IC50,[1],0.0024 µM
O=C(NC[C@]1(CC2CC2)[C@@H]2CN(S(=O)(=O)c3cccnc3)C[C@@H]21)c1ccc(Cl)cc1Cl,IC50,[1],0.89 µM
same,IC50,[2],> 30 µM
Cn1cnc(S(=O)(=O)N2C[C@@H]3[C@H](C2)[C@@]3(CNC(=O)c2ccc(Cl)c(Cl)c2)CC2CC2)c1,Kp,[3]; brain,0.3
same,IC50,[1],0.082 µM
same,Fu,Plasma [6],2%
Cn1cnc(S(=O)(=O)N2C[C@@H]3[C@H](C2)[C@@]3(CNC(=O)c2cc(Cl)cc(Cl)c2)CC2CC2)c1,Kp,[3]; brain,0.3
same,IC50,[1],0.1 µM
same,Fu,Plasma [6],2%

# Reference: ChEMBL document CHEMBL3112567, “Novel GlyT1 inhibitor chemotypes by scaffold hopping. Part 1: development of a potent and CNS penetrant [3.1.0]-based lead” (Bioorg Med Chem Lett, 2014)
